Test results from patent publication US9693556B2, “Herbicidal pyridazinone derivatives” (SYNGENTA LIMITED, priority 2011, dated 2017).

Experiments:
Type in all cases: in vivo
[1] = test system: Amaranthus retoflexus (AMARE); experiment: Pre-emergence herbicidal glasshouse test on Amaranthus retoflexus; settings: pre-emergence; 1000 g/h; evaluated after 13 days
Method in brief: (§1)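 Pre-emergence treatment came one day after sowing, post-emergence treatment after eight days' growth; both used 1000 g/h in a 0.5% Tween 20 acetone/water vehicle. Percent damage, scored 1–5, was read 13 days later.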

[2] = test system: Setaria faberi (SETFA); experiment: Pre-emergence herbicidal glasshouse test on Setaria faberi; settings: pre-emergence; 1000 g/h; evaluated after 13 days
Method in brief: as §1

[3] = test system: Alopecurus myosuroides (ALOMY); experiment: Post-emergence herbicidal glasshouse test on Alopecurus myosuroides; settings: post-emergence; 1000 g/h; evaluated after 13 days
Method in brief: as §1

[4] = test system: Echinochloa crus-galli (ECHCG); experiment: Post-emergence herbicidal glasshouse test on Echinochloa crus-galli; settings: post-emergence; 1000 g/h; evaluated after 13 days
Method in brief: as §1

[5] = test system: Solanum nigrum (SOLNI); experiment: Post-emergence herbicidal glasshouse test on Solanum nigrum; settings: post-emergence; 1000 g/h; evaluated after 13 days
Method in brief: as §1

[6] = test system: Amaranthus retoflexus (AMARE); experiment: Post-emergence herbicidal glasshouse test on Amaranthus retoflexus; settings: post-emergence; 1000 g/h; evaluated after 13 days
Method in brief: as §1

[7] = test system: Ipomoea hederacea (IPOHE); experiment: Post-emergence herbicidal glasshouse test on Ipomoea hederacea; settings: post-emergence; 1000 g/h; evaluated after 13 days
Method in brief: as §1

[8] = test system: Setaria faberi (SETFA); experiment: Post-emergence herbicidal glasshouse test on Setaria faberi; settings: post-emergence; 1000 g/h; evaluated after 13 days
Method in brief: as §1

[9] = test system: Solanum nigrum (SOLNI); experiment: Pre-emergence herbicidal glasshouse test on Solanum nigrum; settings: pre-emergence; 1000 g/h; evaluated after 13 days
Method in brief: as §1

[10] = test system: Echinochloa crus-galli (ECHCG); experiment: Pre-emergence herbicidal glasshouse test on Echinochloa crus-galli; settings: pre-emergence; 1000 g/h; evaluated after 13 days
Method in brief: as §1

[11] = test system: Alopecurus myosuroides (ALOMY); experiment: Pre-emergence herbicidal glasshouse test on Alopecurus myosuroides; settings: pre-emergence; 1000 g/h; evaluated after 13 days
Method in brief: as §1

[12] = test system: Ipomoea hederacea (IPOHE); experiment: Pre-emergence herbicidal glasshouse test on Ipomoea hederacea; settings: pre-emergence; 1000 g/h; evaluated after 13 days
Method in brief: as §1

Compound | PRE Application AMARE herbicidal damage (five point scale) [1] | PRE Application SETFA herbicidal damage (five point scale) [2] | POST Application ALOMY herbicidal damage (five point scale) [3] | POST Application ECHCG herbicidal damage (five point scale) [4] | POST Application SOLNI herbicidal damage (five point scale) [5] | POST Application AMARE herbicidal damage (five point scale) [6] | POST Application IPOHE herbicidal damage (five point scale) [7] | POST Application SETFA herbicidal damage (five point scale) [8] | PRE Application SOLNI herbicidal damage (five point scale) [9] | PRE Application ECHCG herbicidal damage (five point scale) [10] | PRE Application ALOMY herbicidal damage (five point scale) [11] | PRE Application IPOHE herbicidal damage (five point scale) [12]
CCOc1nn(C)c(=O)c(O)c1-c1ccc(C(F)(F)F)cc1S(C)(=O)=O [Compound 2.050] | 5 (5=80-100% damage) | 5 (5=80-100% damage) | 5 (5=80-100% damage) | 5 (5=80-100% damage) | 5 (5=80-100% damage) | 5 (5=80-100% damage) | 5 (5=80-100% damage) | 5 (5=80-100% damage) | 5 (5=80-100% damage) | 5 (5=80-100% damage) | 5 (5=80-100% damage) | 5 (5=80-100% damage)
CCCOc1nn(C)c(=O)c(O)c1-c1ccc(C(F)(F)F)cc1S(C)(=O)=O [Compound 2.051, 4-hydroxy-2-methyl-5-[2-methylsulfonyl-4-(trifluoromethyl)phenyl]-6-propoxy-pyridazin-3-one] | 5 (5=80-100% damage) | 3 (3=40-59% damage) | 5 (5=80-100% damage) | 5 (5=80-100% damage) | 5 (5=80-100% damage) | 5 (5=80-100% damage) | 5 (5=80-100% damage) | 5 (5=80-100% damage) | 5 (5=80-100% damage) | 5 (5=80-100% damage) | 5 (5=80-100% damage) | 4 (4=60-79% damage)
CC(C)Oc1nn(C)c(=O)c(O)c1-c1ccc(C(F)(F)F)cc1S(C)(=O)=O [Compound 2.052] | 5 (5=80-100% damage) | 3 (3=40-59% damage) | 5 (5=80-100% damage) | 5 (5=80-100% damage) | 5 (5=80-100% damage) | 5 (5=80-100% damage) | 5 (5=80-100% damage) | 5 (5=80-100% damage) | 5 (5=80-100% damage) | 5 (5=80-100% damage) | 4 (4=60-79% damage) | 4 (4=60-79% damage)
Cn1ncc(-c2ccc(COCC(F)(F)F)cc2S(C)(=O)=O)c(O)c1=O [Compound 2.053] | 5 (5=80-100% damage) | 2 (2=20-39% damage) | 3 (3=40-59% damage) | 3 (3=40-59% damage) | 5 (5=80-100% damage) | 5 (5=80-100% damage) | 5 (5=80-100% damage) | 2 (2=20-39% damage) | 5 (5=80-100% damage) | 5 (5=80-100% damage) | 3 (3=40-59% damage) | 1 (1=0-19% damage)
C=Cn1ncc(-c2ccccc2S(C)(=O)=O)c(O)c1=O [Compound 2.054] | 5 (5=80-100% damage) | 5 (5=80-100% damage) | 5 (5=80-100% damage) | 5 (5=80-100% damage) | 5 (5=80-100% damage) | 5 (5=80-100% damage) | 5 (5=80-100% damage) | 5 (5=80-100% damage) | 5 (5=80-100% damage) | 5 (5=80-100% damage) | 5 (5=80-100% damage) | 4 (4=60-79% damage)
CS(=O)(=O)c1ccc(-c2cn[nH]c(=O)c2O)c(Cl)c1C1=NOCC1 [Compound 2.055] | 4 (4=60-79% damage) | 1 (1=0-19% damage) | 3 (3=40-59% damage) | 5 (5=80-100% damage) | 5 (5=80-100% damage) | 5 (5=80-100% damage) | 3 (3=40-59% damage) | 5 (5=80-100% damage) | 2 (2=20-39% damage) | 2 (2=20-39% damage) | 2 (2=20-39% damage) | 1 (1=0-19% damage)
Cn1nc(O)c(-c2ccc(C(F)(F)F)cc2S(C)(=O)=O)c(O)c1=O [Compound 2.056] | 5 (5=80-100% damage) | 5 (5=80-100% damage) | 5 (5=80-100% damage) | 5 (5=80-100% damage) | 5 (5=80-100% damage) | 5 (5=80-100% damage) | 5 (5=80-100% damage) | 5 (5=80-100% damage) | 5 (5=80-100% damage) | 5 (5=80-100% damage) | 4 (4=60-79% damage) | 3 (3=40-59% damage)
CC(=O)Oc1c(-c2ccc(C(F)(F)F)cc2S(C)(=O)=O)cnn(C)c1=O [Compound 3.001, [2-methyl-5-[2-methylsulfonyl-4-(trifluoromethyl)phenyl]-3-oxo-pyridazin-4-yl]acetate] | 5 (5=80-100% damage) | 5 (5=80-100% damage) | 5 (5=80-100% damage) | 5 (5=80-100% damage) | 5 (5=80-100% damage) | 5 (5=80-100% damage) | 5 (5=80-100% damage) | 5 (5=80-100% damage) | 5 (5=80-100% damage) | 5 (5=80-100% damage) | 5 (5=80-100% damage) | 5 (5=80-100% damage)
